In ChEMBL document CHEMBL1151845, “Terpenoids from Toona ciliata” (2009):
Converted amounts (≈) assume the structure as drawn.

How the values were obtained:
[1] = tested on: Staphylococcus epidermidis; experiment: Antibacterial activity against Staphylococcus epidermidis ATCC 12228 after 18 hrs; assay type: functional; conditions: ATCC 12228, 18 h
[2] = tested on: Trichophyton rubrum; experiment: Antifungal activity against Trichophyton rubrum after 48 hrs; assay type: functional

| SMILES | MIC [1] [µg/mL] | MIC [2] [µg/mL] |
| --- | --- | --- |
| CC1COc2c(N3CCN(C)CC3)c(F)cc3c(=O)c(C(=O)O)cn1c23 (stereo not drawn) [OFLOXACIN] | 0.39 (≈ 1.08 µM) | – |
| C[C@@H]1[C@H](O)[C@@H](C)/C=C/C=C/C=C/C=C/C=C/C=C/C=C/[C@H](O[C@@H]2O[C@H](C)[C@@H](O)[C@H](N)[C@@H]2O)C[C@@H]2O[C@](O)(C[C@@H](O)C[C@@H](O)[C@H](O)CC[C@@H](O)C[C@@H](O)CC(=O)O[C@H]1C)C[C@H](O)[C@H]2C(=O)O [AMPHOTERICIN B] | – | 1.56 (≈ 1.69 µM) |
| C=C[C@@]1(C)CC[C@H]2[C@@](O)(CC[C@@H]3[C@]2(C)CCC[C@]3(C)C(=O)O)C1 [TOONACILIATIN M] | – | 12.5 (≈ 39 µM) |
